Source: PMC8036666, “Biological and Physico-Chemical Characteristics of Arginine-Rich Peptide Gemini Surfactants with Lysine and Cystine Spacers” (International Journal of Molecular Sciences, 2021)
Converted amounts (≈) assume the structure as drawn. Like-named read-outs stand apart in the source and are kept apart here. Where a SMILES comes first, the peptide text is derived from it. Bridges are numbered along the chain shown (N, C = ends). Roman numbers before positions name the chains, in order. Side-chain parts run from the residue outwards. The star is where a group is joined. Myristoyl = CCCCCCCCCCCCCC(=O)*; Lauroyl = CCCCCCCCCCCC(=O)*; Decanoyl = CCCCCCCCCC(=O)*; Octanoyl = CCCCCCCC(=O)*

What was measured:
HaCaT cells = format: cell-based, human; conditions: 24 h
Method: Cells were trypsinized, and the medium was renewed 2–3 times per week. The cytotoxicity of compounds was assessed by the determination of cell metabolic activity by colorimetric CellTilter 96® Aqueous One Solution Cell Proliferation Assay (Promega, Madison, WI, USA), according to the manufacturer’s instructions. […] Every compound was medium-soluble in 37 °C; thus, the control cells were cultured with the medium. Serial dilutions of the tested compounds were always prepared prior to use. Cells were incubated with drugs for 24 h, and then, 20 μL of the CellTiter 96®AqueousOne Solution Reagent was added to each well containing cells maintained in 100 μL of culture medium.

C. glabrata ATCC 15126 = test system: C. glabrata ATCC 15126
Method: (§1) The Acinetobacter baumannii ATCC BAA-1605, Enterococcus faecium ATCC 700221, Escherichia coli ML-35 ATCC 43827, Klebsiella aerogenes ATCC 13048, Klebsiella pneumoniae ATCC 700603, Pseudomonas aeruginosa ATCC 9027, Staphylococcus aureus ATCC 25923, Staphylococcus aureus ATCC 33591, Candida albicans ATCC 10231, Candida glabrata ATCC 15126, strains were acquired from the American Type Culture Collection (ATCC). All the strains were stored at −80 °C in Roti-Store cryo vials and before the tests were transferred into fresh Mueller–Hinton broth (MHB, Biocorp, Warsaw, Poland) for bacteria or RPMI-1640 (Sigma-Aldrich, Steinheim, Germany) for fungi and incubated for 24 h at 37 °C. Then, the cultures were seeded on the Mueller–Hinton agar (BioMaxima, Lublin, Poland) or Sabouraud dextrose agar (SDA, BioMaxima, Lublin, Poland) plates, respectively, and incubated as just mentioned. These agar cultures were used for further microbiological assays. Cell densities for all assays were adjusted spectrophotometrically (Multiskan GO Microplate Spectrophotometer, Thermo Fisher Scientific, Vantaa, Finland) at 600 and 530 nm for bacteria and fungi, respectively.
(§2) The MICs were determined by the broth microdilution method according to the Clinical and Laboratory Standard Institute guidelines. For this purpose, initial inoculums of bacteria (5 × 10^5 CFU/mL) in MHB and yeasts (2 × 10^3 CFU/mL) in RPMI-1640 with 2% D-glucose were exposed to the ranging concentration of lipopeptides (0.5–256 μg/mL) and incubated at 37 °C for 18 h and 24 h, respectively. The experiments were conducted on 96-well microtiter polystyrene plates (Kartell, Noviglio, Italy). The growth was assessed visually after incubation, and the MIC was assumed as the lowest peptide concentration at which a noticeable growth of microorganisms was inhibited. All experiments were conducted in triplicate.

C. albicans ATCC 10231 = test system: C. albicans ATCC 10231
Method: as §1, §2

[1] = test system: Pseudomonas aeruginosa ATCC 9027; format: cell-based; conditions: ATCC 9027, 24 h
Summary of the method: (§3)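 Biofilms grown 24 h at 37°C from 5.0 × 10^5 CFU/mL inocula in MHB, rinsed with PBS, then exposed to compounds at 1–512 μg/mL for 24 h at 37°C. Viability read by resazurin after 1 h (570/600 nm). MBEC is the lowest concentration giving ≤10 ± 0.5% reduction relative to controls; triplicates.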

[2] = test system: Klebsiella pneumoniae ATCC 700603; format: cell-based; conditions: ATCC 700603, 24 h
Summary of the method: as §3

[3] = test system: Enterococcus faecium ATCC 700221; format: cell-based; conditions: ATCC 700221, 24 h
Summary of the method: as §3

[4] = test system: Candida albicans ATCC 10231; format: cell-based; conditions: ATCC 10231, 24 h
[5] = test system: Staphylococcus aureus ATCC 33591
Method: as §1, with “[…],” for “Poland) for bacteria or RPMI-1640 (Sigma-Aldrich,”, “Cell densities for all assays were adjusted spectrophotometrically (Multiskan GO Microplate Spectrophotometer, Thermo Fisher Scientific, Vantaa, Finland) at 600 and 530 nm for bacteria and fungi, respectively.” left out
The MICs were determined by the broth microdilution method according to the Clinical and Laboratory Standard Institute guidelines. […] The experiments were conducted on 96-well microtiter polystyrene plates (Kartell, Noviglio, Italy). The growth was assessed visually after incubation, and the MIC was assumed as the lowest peptide concentration at which a noticeable growth of microorganisms was inhibited. All experiments were conducted in triplicate.

| Structure (SMILES) | IC50 (HaCaT cells) [µg/mL] | MIC C. glabrata ATCC 15126 (C. glabrata ATCC 15126; ATCC 15126, 24 h) [µg/mL] | MIC C. albicans ATCC 10231 (C. albicans ATCC 10231; ATCC 10231, 24 h) [µg/mL] | MBEC Pseudomonas aeruginosa ATCC 9027 [1] [µg/mL] | MBEC Klebsiella pneumoniae ATCC 700603 [2] [µg/mL] | MBEC Enterococcus faecium ATCC 700221 [3] [µg/mL] | MBEC Candida albicans ATCC 10231 [4] [µg/mL] | MIC Staphylococcus aureus ATCC 33591 ([5]; ATCC 33591, 24 h) [µg/mL] | MIC C. glabrata ATCC 15126 (C. glabrata ATCC 15126; planktonic culture) | MIC C. albicans ATCC 10231 (C. albicans ATCC 10231; planktonic culture) | MIC Staphylococcus aureus ATCC 33591 ([5]; planktonic culture) |
| --- | --- | --- | --- | --- | --- | --- | --- | --- | --- | --- | --- |
| CCCCCCCC(=O)N[C@@H](Cc1ccccc1)C(=O)N[C@@H](CCCNC(=N)N)C(=O)N[C@@H](CCCNC(=N)N)C(=O)NCCCC[C@H](NC(=O)[C@H](CCCNC(=N)N)NC(=O)[C@H](CCCNC(=N)N)NC(=O)[C@H](Cc1ccccc1)NC(=O)CCCCCCC)C(N)=O [Compound B5] (Octanoyl-FRRK([Arg-Arg-Phe-Octanoyl])-NH2) | 169.13 ± 32.80 (≈ 128 µM) | 16 (≈ 12.2 µM) | 16 (≈ 12.2 µM) | 512 | 256 | 8 | 32 | 4 (≈ 3.04 µM) |  |  |  |
| CCCCCCCCCCCC(=O)N[C@@H](CCCNC(=N)N)C(=O)N[C@@H](CCCNC(=N)N)C(=O)N[C@@H](CSSC[C@H](NC(=O)[C@H](CCCNC(=N)N)NC(=O)[C@H](CCCNC(=N)N)NC(=O)CCCCCCCCCCC)C(N)=O)C(N)=O [Compound C3] (I: Lauroyl-Arg-Arg-Cys-NH2 / II: Lauroyl-Arg-Arg-Cys-NH2; disulfide I:3-II:3) | 119.47 ± 6.03 (≈ 97.3 µM) | 2 (≈ 1.63 µM) | 1 (≈ 0.815 µM) | 512 | 256 | 16 | 16 | 4 (≈ 3.26 µM) |  |  |  |
| CCCCCCC(CCCC)C(=O)N[C@@H](CCCNC(=N)N)C(=O)N[C@@H](CCCNC(=N)N)C(=O)N[C@@H](CSSC[C@H](NC(=O)[C@H](CCCNC(=N)N)NC(=O)[C@H](CCCNC(=N)N)NC(=O)C(CCCC)CCCCCC)C(N)=O)C(N)=O (stereo partly drawn) [Compound C7] | 163.98 ± 13.66 (≈ 134 µM) | 16 (≈ 13 µM) | 16 (≈ 13 µM) | 512 | 256 | 4 | 64 | 2 (≈ 1.63 µM) |  |  |  |
| CCCCCCCCCCCC(=O)N[C@@H](CCCNC(=N)N)C(=O)N[C@@H](CCCNC(=N)N)C(=O)NCCCC[C@H](NC(=O)[C@H](CCCNC(=N)N)NC(=O)[C@H](CCCNC(=N)N)NC(=O)CCCCCCCCCCC)C(N)=O [Compound B3] (Lauroyl-Arg-Arg-Lys([Arg-Arg-Lauroyl])-NH2) | 26.42 ± 4.24 (≈ 23.3 µM) | 2 (≈ 1.76 µM) | 2 (≈ 1.76 µM) | 512 | 128 | 16 | 32 | 2 (≈ 1.76 µM) |  |  |  |
| CCCCCCC(CCCC)C(=O)N[C@@H](CCCNC(=N)N)C(=O)N[C@@H](CCCNC(=N)N)C(=O)NCCCC[C@H](NC(=O)[C@H](CCCNC(=N)N)NC(=O)[C@H](CCCNC(=N)N)NC(=O)C(CCCC)CCCCCC)C(N)=O (stereo partly drawn) [Compound B7] | 78.78 ± 6.93 (≈ 69.4 µM) | 16 (≈ 14.1 µM) | 8 (≈ 7.05 µM) | 256 | 128 | 8 | 64 | 0.5 (≈ 0.441 µM) |  |  |  |
| CCCCCCCC(=O)N[C@@H](CCCNC(=N)N)C(=O)N[C@@H](CCCNC(=N)N)C(=O)N[C@@H](CSSC[C@H](NC(=O)[C@H](CCCNC(=N)N)NC(=O)[C@H](CCCNC(=N)N)NC(=O)CCCCCCC)C(N)=O)C(N)=O [Compound C1] (I: Octanoyl-Arg-Arg-Cys-NH2 / II: Octanoyl-Arg-Arg-Cys-NH2; disulfide I:3-II:3) | >500 | 64 (≈ 57.4 µM) | 128 (≈ 115 µM) | 512 | >512 | 64 | 256 | 16 (≈ 14.3 µM) |  |  |  |
| CCCCCCCCCC(=O)N[C@@H](CCCNC(=N)N)C(=O)N[C@@H](CCCNC(=N)N)C(N)=O [Compound A2, C10-RR-NH2] (Decanoyl-Arg-Arg-NH2) | >500 |  |  | >512 | >512 | 512 | 512 |  | >256 (−/−) µg/mL | >256 (−/−) µg/mL | 256 (−/−) µg/mL |
| CCCCCCCCCCCC(=O)N[C@@H](CCCNC(=N)N)C(=O)N[C@@H](CCCNC(=N)N)C(N)=O [Compound A3, C12-RR-NH2] (Lauroyl-Arg-Arg-NH2) | 153.50 ± 8.13 (≈ 300 µM) | 128 (≈ 250 µM) | 64 (≈ 125 µM) | 512 | 512 | 32 | 128 | 32 (≈ 62.5 µM) |  |  |  |
| CCCCCCCCCCCCCC(=O)N[C@@H](CCCNC(=N)N)C(=O)N[C@@H](CCCNC(=N)N)C(=O)NCCCC[C@H](NC(=O)[C@H](CCCNC(=N)N)NC(=O)[C@H](CCCNC(=N)N)NC(=O)CCCCCCCCCCCCC)C(N)=O [Compound B4] (Myristoyl-Arg-Arg-Lys([Arg-Arg-Myristoyl])-NH2) | 32.39 ± 4.49 (≈ 27.2 µM) | 2 (≈ 1.68 µM) | 4 (≈ 3.36 µM) | >512 | 512 | 64 | 64 | 64 (≈ 53.8 µM) |  |  |  |
